Measured values taken from patent US20220040255A1, “CHEMOTHERAPEUTIC REMODELING OF THE GUT MICROBIOME” (THE SCRIPPS RESEARCH INSTITUTE, priority 2018, published 2022).

System: gut microbiota from cecum of LDLr−/− mice
Experiment: in vitro en masse screening assay (cecum culture, 16S rRNA sequencing)
Format: cell-based
Protocol: We have established the following in vitro compound screening protocol for en masse gut microbiome remodeling. We obtain fresh gut microbiome content from LDLr^-/- mice conditioned for at least two weeks on WD by surgically removing cecum under anaerobic conditions. These samples are then mixed with growth media, distributed in 96-well plates, and incubated overnight in the presence of the test peptides. The activity and selectivity of each peptide for remodeling the gut microbiota community was assessed en masse by 16S rRNA sequencing of each well. A number of challenges had to be addressed in developing this protocol, including inoculum handling, choice of growth media, assay duration, etc. Our current assay culture condition maintains 50 bacterial genera (overnight culture), which is fairly representative of the 67 genera found in the uncultured community (Table 2). We used a distance scoring algorithm for a more refined compound selection, in which peptides that remodel the microbiota community most completely from the dysfunctional state (WD fed) toward the functional state (CHD fed) are scored higher. Briefly, we first eliminate cyclic D,L-α-peptides that have broad-spectrum antibacterial activity (inhibit >95% of growth of ≥25% of species in the community). The remaining compounds are then ranked based on how well they suppressed the bacterial species that grew in abundance in WD-fed mice. […] Among these, 40 genera decreased while 14 genera increased in abundance by WD feeding. Within the increased 11 genera, there were 19 bacterial species that were also present in our in vitro culture system. Accordingly, compounds were scored highly when they reduced the levels of 19 bacterial species (lowest summed differences in relative abundance) that were increased by WD feeding to be more similar to their levels in a CHD-fed microbiome (see Table 3 for peptide ranking). Based on these analyses, we chose two peptides for further in vivo validation and efficacy studies: the cationic peptide 1, […] NO:1), and the neutral peptide 11, […] NO:11), which ranked high within their respective peptide clusters. In vitro cecum culture and peptide screening. We screened a number of parameters to optimize the in vitro culture condition for maximal bacterial diversity in liquid culture, including a survey of several different growth media, dilution factors for plate inoculation, and incubation times; further details of the development of this in vitro screen will be reported elsewhere. Female LDLr^-/- mice (8-10 weeks of age) were fed a WD for two weeks. Cecum harvest and all assay steps were performed under anaerobic conditions (Coy Laboratory anaerobic chamber). Cecum contents from three mice were pooled for the assay to provide enough material and to minimize the individual variation in gut microbiome. Cecum contents were suspended in PBS (1.5 ml PBS per 100 mg of cecum content). The mixture was vortexed for 5 min and the supernatant was transferred to a new tube. The cecum content mixture was further diluted in Chopped Meat Carbohydrate Broth (BD 297307) for in vitro peptide screening. […] The concentration of peptide stock in DMSO was calculated based on A280 measurement. For each peptide, an initial 20 mM stock was made in DMSO and diluted to 1 mM in 10% sucrose. From that, a 0.64 mM peptide dilution in 10% sucrose was prepared, and each peptide was further diluted into the assay for peptide screening at two concentrations (64 μM and 16 μM). Bacterial DNA was harvested after 24-hour peptide treatment and isolated with Microbial DNA isolation kit (Mo Bio) following the manufacturer's instructions. 16S rRNA gene sequencing and processing. PCR amplicons of the V3-V4 16S rRNA region were amplified and sequenced using an Illumina MiSeq platform. […]

[1] = ranking in remodeling WD gut microbiota toward CHD microbiota composition

Compound: c[WwQoHdKt]
- ranked distance to chow [1]: 15

Compound: O=C(N[C@H](CO)[C@H](O)c1ccc([N+](=O)[O-])cc1)C(Cl)Cl [Chm, chloramphenicol, reference compound]
- ranked distance to chow (Chm- 2 μg): 4
- ranked distance to chow (Chm- 8 μg): 24

Compound: c[lLwHoK]
- ranked distance to chow [1]: 7

Compound: c[wLlWkKkS]
- ranked distance to chow [1]: 10

Compound: c[wLeLwKsK]
- ranked distance to chow [1]: 9

Compound: c[WlLlKkKs] [WllLlKkKs]
- ranked distance to chow [1]: 20

Compound: c[wFkSkSkS]
- ranked distance to chow [1]: 19

Compound: c[YlWyKhAe]
- ranked distance to chow [1]: 23

Compound: c[WwLlHsKk
- ranked distance to chow [1]: 3

Compound: c[wLfKwKkK]
- ranked distance to chow [1]: 6

Compound: c[YlYlYkSo]
- ranked distance to chow [1]: 13

Compound: c[wLhLwKrK]
- ranked distance to chow [1]: 11

Compound: c[LlWhQk]
- ranked distance to chow [1]: 5

Compound: c[wLwSeQeO] [wLwSeQsO]
- ranked distance to chow [1]: 16

Compound: c[wLwSeQhK]
- ranked distance to chow [1]: 22

Compound: c[fWwYqHhQ]
- ranked distance to chow [1]: 25

Compound: c[lFlAlKhK]
- ranked distance to chow [1]: 8

Compound: c[WlWlWkSk]
- ranked distance to chow [1]: 1

Compound: c[FwHlYoHq]
- ranked distance to chow [1]: 18

Compound: c[wWwKsKsK]
- ranked distance to chow [1]: 12

Compound: c[wLlEeKkN]
- ranked distance to chow [1]: 21

Compound: c[YwElYsKq]
- ranked distance to chow [1]: 17
